Measured values as given in paper PMC9133015 (Nature Communications, 2022).
Where “and” joins values, the source holds several entries; their conditions need not be identical. Identical values can stand only once.

How the values were obtained:
Assay in all cases: Kinase inhibitor specificity profiling (Reaction Biology Corporation)
Type in all cases: biochemical
Set-up in all cases: % Enzyme Activity (relative to DMSO controls): concentration or dose not given beside the values
[1] = target: T1, panel of 370 protein kinases (Homo sapiens, UniProt P36888); conditions: 2 h, kinase FLT3; read-out: % Enzyme Activity (relative to DMSO controls)
T1 construct: purchased Reaction Biology Corporation (assay service)
T1 sequence (P36888 27-993): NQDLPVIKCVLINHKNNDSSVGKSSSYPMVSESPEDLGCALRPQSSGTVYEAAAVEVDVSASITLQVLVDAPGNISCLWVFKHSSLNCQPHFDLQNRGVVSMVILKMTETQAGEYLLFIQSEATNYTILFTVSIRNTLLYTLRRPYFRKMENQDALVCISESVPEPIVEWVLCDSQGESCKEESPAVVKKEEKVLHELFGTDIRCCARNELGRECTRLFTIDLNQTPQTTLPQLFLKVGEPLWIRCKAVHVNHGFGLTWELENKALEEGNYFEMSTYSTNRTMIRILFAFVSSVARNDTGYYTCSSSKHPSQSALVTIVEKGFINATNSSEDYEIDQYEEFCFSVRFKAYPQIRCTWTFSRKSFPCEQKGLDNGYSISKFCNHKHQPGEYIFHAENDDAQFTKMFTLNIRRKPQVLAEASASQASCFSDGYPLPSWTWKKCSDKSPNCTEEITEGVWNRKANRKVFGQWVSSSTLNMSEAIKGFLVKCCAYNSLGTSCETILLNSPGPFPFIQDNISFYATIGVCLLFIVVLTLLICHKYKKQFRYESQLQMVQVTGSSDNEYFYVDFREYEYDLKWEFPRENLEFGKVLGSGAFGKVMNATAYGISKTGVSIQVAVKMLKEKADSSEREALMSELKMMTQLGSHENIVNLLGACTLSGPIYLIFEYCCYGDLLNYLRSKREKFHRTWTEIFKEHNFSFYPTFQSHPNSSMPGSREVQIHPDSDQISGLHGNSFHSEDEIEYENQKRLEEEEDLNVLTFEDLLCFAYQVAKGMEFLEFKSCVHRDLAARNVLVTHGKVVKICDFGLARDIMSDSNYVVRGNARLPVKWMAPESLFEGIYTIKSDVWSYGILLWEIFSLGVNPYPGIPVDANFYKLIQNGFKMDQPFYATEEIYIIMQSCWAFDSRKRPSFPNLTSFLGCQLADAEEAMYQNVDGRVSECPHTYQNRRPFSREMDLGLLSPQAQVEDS

[2] = target: T2, panel of 370 protein kinases (Homo sapiens, UniProt Q9HCP0); conditions: kinase CK1g1
T2 construct: purchased Reaction Biology Corporation (assay service)
T2 sequence (Q9HCP0 whole entry): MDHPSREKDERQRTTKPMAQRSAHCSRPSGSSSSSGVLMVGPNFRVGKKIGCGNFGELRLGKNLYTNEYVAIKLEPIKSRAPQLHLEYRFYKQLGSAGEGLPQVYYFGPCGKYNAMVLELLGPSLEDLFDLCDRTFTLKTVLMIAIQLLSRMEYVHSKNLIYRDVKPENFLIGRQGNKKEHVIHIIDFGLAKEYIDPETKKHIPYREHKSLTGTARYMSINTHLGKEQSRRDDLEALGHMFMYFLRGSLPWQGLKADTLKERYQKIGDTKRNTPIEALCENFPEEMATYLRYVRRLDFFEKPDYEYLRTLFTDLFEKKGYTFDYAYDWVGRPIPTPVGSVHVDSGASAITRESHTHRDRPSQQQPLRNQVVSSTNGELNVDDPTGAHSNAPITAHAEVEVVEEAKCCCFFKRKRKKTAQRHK

[3] = target: T3, panel of 370 protein kinases (Homo sapiens, UniProt P78362); conditions: 2 h, kinase SRPK2; read-out: % Enzyme Activity (relative to DMSO controls)
T3 construct: purchased Reaction Biology Corporation (assay service)

[4] = target: T4, panel of 370 protein kinases (Homo sapiens, UniProt Q14012); conditions: 2 h, kinase CAMK1a; read-out: % Enzyme Activity (relative to DMSO controls)
T4 construct: purchased Reaction Biology Corporation (assay service)

[5] = target: T5, panel of 370 protein kinases (Homo sapiens, UniProt Q13043); conditions: kinase MST1/STK4
T5 construct: purchased Reaction Biology Corporation (assay service)
T5 sequence (Q13043 whole entry): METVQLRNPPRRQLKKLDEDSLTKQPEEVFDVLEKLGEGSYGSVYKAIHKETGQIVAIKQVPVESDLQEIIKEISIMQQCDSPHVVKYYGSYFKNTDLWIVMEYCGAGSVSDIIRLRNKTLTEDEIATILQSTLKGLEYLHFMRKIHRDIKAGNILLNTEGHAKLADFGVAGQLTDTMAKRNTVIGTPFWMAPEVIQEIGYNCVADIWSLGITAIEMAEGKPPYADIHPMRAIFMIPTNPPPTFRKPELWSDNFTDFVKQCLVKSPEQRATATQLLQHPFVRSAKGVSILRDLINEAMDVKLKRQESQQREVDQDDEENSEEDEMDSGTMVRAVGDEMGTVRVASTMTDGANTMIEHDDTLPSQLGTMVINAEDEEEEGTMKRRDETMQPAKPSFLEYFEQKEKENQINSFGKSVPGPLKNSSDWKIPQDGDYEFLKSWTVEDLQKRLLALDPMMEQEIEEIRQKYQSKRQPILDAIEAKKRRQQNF

[6] = target: T6, panel of 370 protein kinases (Homo sapiens, UniProt Q56UN5); conditions: 2 h, kinase YSK4/MAP3K19; read-out: % Enzyme Activity (relative to DMSO controls)
T6 construct: purchased Reaction Biology Corporation (assay service)

[7] = target: T7, panel of 370 protein kinases (Homo sapiens, UniProt P53350); conditions: 2 h, kinase PLK1; read-out: % Enzyme Activity (relative to DMSO controls)
T7 construct: purchased Reaction Biology Corporation (assay service)

[8] = target: T8, panel of 370 protein kinases (Homo sapiens, UniProt P42679); conditions: 2 h, kinase CTK/MATK; read-out: % Enzyme Activity (relative to DMSO controls)
T8 construct: purchased Reaction Biology Corporation (assay service)

[9] = target: T9, panel of 370 protein kinases (Homo sapiens, UniProt P37173); conditions: 2 h, kinase TGFBR2; read-out: % Enzyme Activity (relative to DMSO controls)
T9 construct: purchased Reaction Biology Corporation (assay service)

[10] = target: T10, panel of 370 protein kinases (Homo sapiens, UniProt O75914); conditions: 2 h, kinase PAK3; read-out: % Enzyme Activity (relative to DMSO controls)
T10 construct: purchased Reaction Biology Corporation (assay service)
T10 sequence (O75914 whole entry): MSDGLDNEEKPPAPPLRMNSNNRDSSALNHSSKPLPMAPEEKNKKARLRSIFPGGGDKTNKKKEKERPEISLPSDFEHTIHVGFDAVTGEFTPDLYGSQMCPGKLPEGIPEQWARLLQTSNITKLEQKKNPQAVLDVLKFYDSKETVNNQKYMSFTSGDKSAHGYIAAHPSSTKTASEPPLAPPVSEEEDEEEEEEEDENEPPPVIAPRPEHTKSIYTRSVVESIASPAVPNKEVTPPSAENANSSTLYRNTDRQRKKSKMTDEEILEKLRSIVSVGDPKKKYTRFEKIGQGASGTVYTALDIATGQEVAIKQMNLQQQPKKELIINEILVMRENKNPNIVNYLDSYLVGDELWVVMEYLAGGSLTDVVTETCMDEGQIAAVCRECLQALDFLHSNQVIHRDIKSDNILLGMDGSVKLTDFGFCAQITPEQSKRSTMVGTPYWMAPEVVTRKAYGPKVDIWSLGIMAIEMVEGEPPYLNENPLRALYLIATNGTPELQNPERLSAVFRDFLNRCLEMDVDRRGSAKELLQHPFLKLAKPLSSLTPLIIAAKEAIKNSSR

[11] = target: T11, panel of 370 protein kinases (Homo sapiens, UniProt Q86UE8); conditions: 2 h, kinase TLK2; read-out: % Enzyme Activity (relative to DMSO controls)
T11 construct: purchased Reaction Biology Corporation (assay service)
T11 sequence (Q86UE8 whole entry): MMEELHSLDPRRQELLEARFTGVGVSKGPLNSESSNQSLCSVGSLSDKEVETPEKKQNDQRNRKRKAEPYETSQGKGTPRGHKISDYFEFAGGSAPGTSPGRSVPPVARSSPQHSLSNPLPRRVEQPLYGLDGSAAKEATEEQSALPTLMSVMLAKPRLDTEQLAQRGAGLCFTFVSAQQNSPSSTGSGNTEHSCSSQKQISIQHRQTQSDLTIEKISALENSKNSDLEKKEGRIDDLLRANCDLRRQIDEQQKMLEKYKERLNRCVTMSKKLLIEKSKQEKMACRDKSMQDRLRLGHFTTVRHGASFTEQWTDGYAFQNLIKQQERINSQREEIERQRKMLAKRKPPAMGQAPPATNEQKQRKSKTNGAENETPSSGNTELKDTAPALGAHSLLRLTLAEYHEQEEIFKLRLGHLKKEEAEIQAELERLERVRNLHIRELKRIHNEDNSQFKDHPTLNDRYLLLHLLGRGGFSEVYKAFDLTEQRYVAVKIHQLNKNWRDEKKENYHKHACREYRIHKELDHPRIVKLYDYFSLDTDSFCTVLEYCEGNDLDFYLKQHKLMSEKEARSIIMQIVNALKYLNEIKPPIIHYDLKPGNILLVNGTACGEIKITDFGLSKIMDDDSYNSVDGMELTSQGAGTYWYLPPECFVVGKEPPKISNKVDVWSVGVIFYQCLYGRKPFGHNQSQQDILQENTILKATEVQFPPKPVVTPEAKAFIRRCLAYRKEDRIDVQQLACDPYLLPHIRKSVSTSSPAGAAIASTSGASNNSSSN

[12] = target: T12, panel of 370 protein kinases (Homo sapiens, UniProt Q9NRH2); conditions: 2 h, kinase SNRK; read-out: % Enzyme Activity (relative to DMSO controls)
T12 construct: purchased Reaction Biology Corporation (assay service)

[13] = target: T13, panel of 370 protein kinases (Homo sapiens, UniProt Q16513); conditions: 2 h, kinase PKN2/PRK2; read-out: % Enzyme Activity (relative to DMSO controls)
T13 construct: purchased Reaction Biology Corporation (assay service)

[14] = target: T14, panel of 370 protein kinases (Homo sapiens, UniProt P06213); conditions: 2 h, kinase IR; read-out: % Enzyme Activity (relative to DMSO controls)
T14 construct: purchased Reaction Biology Corporation (assay service)
T14 sequence (P06213 28-1382): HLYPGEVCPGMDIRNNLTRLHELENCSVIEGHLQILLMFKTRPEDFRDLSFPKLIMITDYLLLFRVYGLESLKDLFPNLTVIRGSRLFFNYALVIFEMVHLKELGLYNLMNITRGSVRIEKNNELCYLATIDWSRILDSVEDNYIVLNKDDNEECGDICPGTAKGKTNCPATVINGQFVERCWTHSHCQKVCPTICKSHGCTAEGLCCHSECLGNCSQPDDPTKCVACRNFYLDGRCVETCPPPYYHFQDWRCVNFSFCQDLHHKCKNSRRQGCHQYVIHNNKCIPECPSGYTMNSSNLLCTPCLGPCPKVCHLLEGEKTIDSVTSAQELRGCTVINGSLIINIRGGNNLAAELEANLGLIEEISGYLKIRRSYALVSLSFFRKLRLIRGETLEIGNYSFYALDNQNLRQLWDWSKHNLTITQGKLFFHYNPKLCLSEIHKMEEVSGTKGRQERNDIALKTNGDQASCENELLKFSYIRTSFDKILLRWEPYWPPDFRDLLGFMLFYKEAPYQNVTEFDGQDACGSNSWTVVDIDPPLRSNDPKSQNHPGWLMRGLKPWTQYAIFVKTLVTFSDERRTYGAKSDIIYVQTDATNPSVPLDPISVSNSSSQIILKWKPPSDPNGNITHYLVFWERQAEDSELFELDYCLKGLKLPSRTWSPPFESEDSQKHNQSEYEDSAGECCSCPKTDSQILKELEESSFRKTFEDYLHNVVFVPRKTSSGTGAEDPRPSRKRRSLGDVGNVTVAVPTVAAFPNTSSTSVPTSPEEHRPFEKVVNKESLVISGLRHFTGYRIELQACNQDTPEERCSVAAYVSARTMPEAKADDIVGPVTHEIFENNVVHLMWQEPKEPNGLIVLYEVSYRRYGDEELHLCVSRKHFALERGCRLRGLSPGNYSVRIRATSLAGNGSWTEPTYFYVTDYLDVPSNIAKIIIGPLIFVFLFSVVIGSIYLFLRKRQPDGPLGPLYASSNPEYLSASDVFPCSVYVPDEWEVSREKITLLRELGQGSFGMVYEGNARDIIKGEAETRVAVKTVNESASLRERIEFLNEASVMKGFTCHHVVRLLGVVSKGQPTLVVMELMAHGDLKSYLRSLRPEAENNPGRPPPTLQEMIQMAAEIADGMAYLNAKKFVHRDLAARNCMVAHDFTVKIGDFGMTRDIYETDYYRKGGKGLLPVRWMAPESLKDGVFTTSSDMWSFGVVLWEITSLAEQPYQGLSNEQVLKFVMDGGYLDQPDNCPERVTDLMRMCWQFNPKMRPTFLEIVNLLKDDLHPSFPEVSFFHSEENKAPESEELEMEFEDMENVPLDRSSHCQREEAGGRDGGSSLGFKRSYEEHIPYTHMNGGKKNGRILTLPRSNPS

[15] = target: T15, panel of 370 protein kinases (Homo sapiens, UniProt Q96S53); conditions: 2 h, kinase TESK2; read-out: % Enzyme Activity (relative to DMSO controls)
T15 construct: purchased Reaction Biology Corporation (assay service)

[16] = target: T16, panel of 370 protein kinases (Homo sapiens, UniProt P45983); conditions: kinase JNK1
T16 construct: purchased Reaction Biology Corporation (assay service)
T16 sequence (P45983 whole entry): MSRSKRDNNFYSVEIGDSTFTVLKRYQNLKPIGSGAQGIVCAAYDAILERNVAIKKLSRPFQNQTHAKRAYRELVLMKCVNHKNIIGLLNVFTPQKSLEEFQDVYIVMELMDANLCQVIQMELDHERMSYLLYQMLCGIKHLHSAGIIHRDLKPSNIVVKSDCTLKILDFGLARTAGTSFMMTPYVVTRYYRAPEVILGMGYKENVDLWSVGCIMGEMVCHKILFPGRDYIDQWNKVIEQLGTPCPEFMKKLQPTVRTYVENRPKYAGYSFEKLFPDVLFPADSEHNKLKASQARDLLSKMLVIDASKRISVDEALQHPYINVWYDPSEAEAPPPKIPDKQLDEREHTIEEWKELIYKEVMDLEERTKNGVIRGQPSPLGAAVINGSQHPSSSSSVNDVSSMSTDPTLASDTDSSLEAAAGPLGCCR

[17] = target: T17, panel of 370 protein kinases (Homo sapiens, UniProt P51955); conditions: 2 h, kinase NEK2; read-out: % Enzyme Activity (relative to DMSO controls)
T17 construct: purchased Reaction Biology Corporation (assay service)

[18] = target: T18, panel of 370 protein kinases (Homo sapiens, UniProt O95382); conditions: 2 h, kinase MEKK6; read-out: % Enzyme Activity (relative to DMSO controls)
T18 construct: purchased Reaction Biology Corporation (assay service)

[19] = target: T19, panel of 370 protein kinases (Homo sapiens, UniProt Q9H4B4); conditions: 2 h, kinase PLK3; read-out: % Enzyme Activity (relative to DMSO controls)
T19 construct: purchased Reaction Biology Corporation (assay service)

[20] = target: T20, panel of 370 protein kinases (Homo sapiens, UniProt P23443); conditions: 2 h, kinase p70S6K/RPS6KB1; read-out: % Enzyme Activity (relative to DMSO controls)
T20 construct: purchased Reaction Biology Corporation (assay service)

[21] = target: T21, panel of 370 protein kinases (Homo sapiens, UniProt Q8TF76); conditions: 2 h, kinase Haspin; read-out: % Enzyme Activity (relative to DMSO controls)
T21 construct: purchased Reaction Biology Corporation (assay service)

[22] = target: T22, panel of 370 protein kinases (Homo sapiens, UniProt Q76MJ5); conditions: 2 h, kinase ERN2/IRE2; read-out: % Enzyme Activity (relative to DMSO controls)
T22 construct: purchased Reaction Biology Corporation (assay service)

In the case of CCN1CCN(C(=O)c2ccc(Nc3ncc(F)c(-c4ccc5nc(N(C)C)sc5c4)n3)nc2)CC1 [YK-2-69], the remaining activity at 1 µM [1] is reported as 92.7%, the “% Enzyme Activity (relative to DMSO controls)” value [2] is reported as 102.35% and 96.73% and the remaining activity at 1 µM [3] is reported as 89.3%. The remaining activity at 1 µM [4] was 101%, the “% Enzyme Activity (relative to DMSO controls)” value [5] was 107.26% and 103.88% and the remaining activity at 1 µM [6] was 97.8%. The remaining activity at 1 µM [7] was 115%, the remaining activity at 1 µM [8] was 98% and the remaining activity at 1 µM [9] was 104%. It also gave a remaining activity at 1 µM [10] of 160%, a remaining activity at 1 µM [11] of 91.4% and a remaining activity at 1 µM [12] of 95.4%. The remaining activity at 1 µM [13] was 88.4%, the remaining activity at 1 µM [14] was 99.4% and the remaining activity at 1 µM [15] was 98.2%. The “% Enzyme Activity (relative to DMSO controls)” value [16] was 71.84% and 70.88%, the remaining activity at 1 µM [17] was 94.2% and the remaining activity at 1 µM [18] was 111%. For the same compound, the remaining activity at 1 µM [19] was 99.7%, the remaining activity at 1 µM [20] was 99.7% and the remaining activity at 1 µM [21] was 99%. For the same compound, the remaining activity at 1 µM [22] was 88.5%.
